According to PubChem BioAssay AID1918934 (Molecular Pharmacology Branch, DTP, NCI, 2023):

Test system: 292921-168-R-J2-PDC complex spheroid viability
Test: Anticancer human tumor 292921-168-R-J2-PDC patient-derived pancreatic carcinoma cell line growth inhibition
Settings: for IC50: curve of first compound; for viability, T/C: stronger effect = lower value
Procedure, shortened: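 Complex spheroids of tumor cells with HUVEC and human MSCs, exposed to iadademstat combined with other agents. Each agent tested in half-log steps from near clinical Cmax (else 10 microM top), DMSO ≤0.25%.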

[1] = second compound 0.1 µM, first compound 0.0316 µM
[2] = second compound 0.1 µM, first compound 0.1 µM
[3] = second compound 0.1 µM, first compound 0.316 µM
[4] = second compound 0.1 µM, first compound 1 µM
[5] = second compound 0.1 µM, first compound 3.16 µM
[6] = second compound 0.1 µM, first compound 10 µM
[7] = second compound 0.316 µM, first compound 0.0316 µM
[8] = second compound 0.316 µM, first compound 0.1 µM
[9] = second compound 0.316 µM, first compound 0.316 µM
[10] = second compound 0.316 µM, first compound 1 µM
[11] = second compound 0.316 µM, first compound 3.16 µM
[12] = second compound 0.316 µM, first compound 10 µM
[13] = second compound 1 µM, first compound 0.0316 µM
[14] = second compound 1 µM, first compound 0.1 µM
[15] = second compound 1 µM, first compound 0.316 µM
[16] = second compound 1 µM, first compound 1 µM
[17] = second compound 1 µM, first compound 3.16 µM
[18] = second compound 1 µM, first compound 10 µM
[19] = second compound 3.16 µM, first compound 0.0316 µM
[20] = second compound 3.16 µM, first compound 0.1 µM
[21] = second compound 3.16 µM, first compound 0.316 µM
[22] = second compound 3.16 µM, first compound 1 µM
[23] = second compound 3.16 µM, first compound 3.16 µM
[24] = second compound 3.16 µM, first compound 10 µM
[25] = second compound 10 µM, first compound 0.0316 µM
[26] = second compound 10 µM, first compound 0.1 µM
[27] = second compound 10 µM, first compound 0.316 µM
[28] = second compound 10 µM, first compound 1 µM
[29] = second compound 10 µM, first compound 3.16 µM
[30] = second compound 10 µM, first compound 10 µM
[31] = second compound 0.1 µM, first compound 0.00316 µM
[32] = second compound 0.1 µM, first compound 0.01 µM
[33] = second compound 0.316 µM, first compound 0.00316 µM
[34] = second compound 0.316 µM, first compound 0.01 µM
[35] = second compound 1 µM, first compound 0.00316 µM
[36] = second compound 1 µM, first compound 0.01 µM
[37] = second compound 3.16 µM, first compound 0.00316 µM
[38] = second compound 3.16 µM, first compound 0.01 µM
[39] = second compound 10 µM, first compound 0.00316 µM
[40] = second compound 10 µM, first compound 0.01 µM
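Also: seven day compound exposure before luminescent viability read.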
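For viability, T/C in this document: 100% = DMSO vehicle control wells.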

| Structure (SMILES) | IC50 (second compound 0.1 µM) | IC50 (second compound 0.316 µM) | IC50 (second compound 1 µM) | IC50 (second compound 3.16 µM) | IC50 (second compound 10 µM) | viability, T/C [1] | viability, T/C [2] | viability, T/C [3] | viability, T/C [4] | viability, T/C [7] | viability, T/C [8] | viability, T/C [9] | viability, T/C [10] | viability, T/C [13] | viability, T/C [14] | viability, T/C [15] | viability, T/C [16] | viability, T/C [19] | viability, T/C [20] | viability, T/C [21] | also measured |
| --- | --- | --- | --- | --- | --- | --- | --- | --- | --- | --- | --- | --- | --- | --- | --- | --- | --- | --- | --- | --- | --- |
| CC(C)c1c(-c2ccccc2)nc2c(C#N)c[nH]n2c1=O + NC1CC1c1ccc(-c2cccc(O)c2)cc1 | > 10000 nM | > 10000 nM | > 10000 nM | > 10000 nM | > 10000 nM | 79.9% | 84% | 82% | 70.7% | 81.7% | 73% | 80.7% | 69.5% | 71.8% | 68.9% | 66.8% | 66.2% | 58.6% | 65.3% | 64.4% | viability, T/C [5]: 78.4%; viability, T/C [6]: 66%; viability, T/C [11]: 71.4%; viability, T/C [12]: 60.4%; viability, T/C [17]: 61.1%; viability, T/C [18]: 55.7%; viability, T/C [22]: 57.9%; viability, T/C [23]: 52.2%; viability, T/C [24]: 59.6%; viability, T/C [25]: 58.1%; viability, T/C [26]: 53.2%; viability, T/C [27]: 58.4%; viability, T/C [28]: 53.7%; viability, T/C [29]: 49.8%; viability, T/C [30]: 52.2% |
| CC1COCCN1c1cc(-c2ccnn2C)c2ccnc(-c3ccn[nH]3)c2n1 (stereo not given) + NC1CC1c1ccc(-c2cccc(O)c2)cc1 | < 3.16 nM | < 3.16 nM | < 3.16 nM | < 3.16 nM | < 3.16 nM | 14.2% | 15.7% | 16.2% | 17.7% | 13.2% | 14.3% | 15.9% | 16.7% | 14.1% | 12.7% | 16.8% | 20.3% | 14.7% | 13.7% | 14.9% | viability, T/C [31]: 16.9%; viability, T/C [32]: 15.3%; viability, T/C [33]: 17.2%; viability, T/C [34]: 14.9%; viability, T/C [35]: 17.7%; viability, T/C [36]: 15.4%; viability, T/C [37]: 15.2%; viability, T/C [38]: 15.4%; viability, T/C [22]: 17%; viability, T/C [39]: 15.1%; viability, T/C [40]: 14.6%; viability, T/C [25]: 14.6%; viability, T/C [26]: 13.5%; viability, T/C [27]: 15.1%; viability, T/C [28]: 17.1% |
| COc1ccc([C@@H](O)c2cc(-c3ncnc4cc(N5CCOCC5)ccc34)c(F)cc2Cl)nn1 + NC1CC1c1ccc(-c2cccc(O)c2)cc1 | 403 nM | 270 nM | 158 nM | 131 nM | < 31.6 nM | 73.1% | 73.9% | 53.5% | 30.8% | 72.5% | 69.6% | 44.4% | 28.2% | 57.7% | 56.9% | 41.9% | 28.1% | 54.9% | 55.8% | 38.8% | viability, T/C [5]: 20.9%; viability, T/C [6]: 10.5%; viability, T/C [11]: 18.2%; viability, T/C [12]: 10.7%; viability, T/C [17]: 18%; viability, T/C [18]: 11.3%; viability, T/C [22]: 23.4%; viability, T/C [23]: 16.8%; viability, T/C [24]: 11.5%; viability, T/C [25]: 44.6%; viability, T/C [26]: 43.3%; viability, T/C [27]: 30%; viability, T/C [28]: 20.8%; viability, T/C [29]: 15.5%; viability, T/C [30]: 12.2% |
| Nc1ncn(C2CC(O)C(CO)O2)c(=O)n1 (stereo not given) + NC1CCC(NC2CC2c2ccccc2)CC1 | 279 nM | 103 nM | 64 nM | 105 nM | 40.5 nM | 62.2% | 49.6% | 50.2% | 44.2% | 61.5% | 49.8% | 46.6% | 42.6% | 52.8% | 45.2% | 47% | 42.7% | 55.1% | 52.3% | 41.3% | viability, T/C [31]: 63.8%; viability, T/C [32]: 70.5%; viability, T/C [33]: 67%; viability, T/C [34]: 69%; viability, T/C [35]: 59.7%; viability, T/C [36]: 58.6%; viability, T/C [37]: 54.8%; viability, T/C [38]: 53.9%; viability, T/C [22]: 35.6%; viability, T/C [39]: 53.1%; viability, T/C [40]: 57.4%; viability, T/C [25]: 49.3%; viability, T/C [26]: 45.8%; viability, T/C [27]: 36%; viability, T/C [28]: 35.4% |
